Assay results from US11717508B2, “Compounds, compositions, and methods for inhibiting bacterial growth” (priority 2016, dated 2023).

Test system: DosRST regulon
Type: cell-based
Conditions: 40 μM, 6 days, >2-fold, p<0.05

In the case of C[C@@H]1CC(C)(C)C[C@]2(C1)NC(=O)NC2=O (racemic) [HC102A, 7,7,9-trimethyl-1,3-diazaspiro[4.5]decane-2,4-dione], the “genes downregulated by compound that are also downregulated in the CDC1551(ΔdosR) mutant” value was 48 genes.
